Source: patent publication US12145927B2 (BRISTOL-MYERS SQUIBB COMPANY, priority 2018, dated 2024)

The molecules below were run against T1, human IDO1 (Homo sapiens, UniProt P14902) (assay: IDO inhibition assay in human IDO1/HEK293 cells (IDO1 HEK Human)). Conditions: HEK293 cells stably expressing human IDO1; 20 hours incubation; absorbance at 490 nm after Ehrlich reagent.
T1 construct: expressed in transfected cells
Type: cell-based
Protocol: HEK293 cells were transfected with a pCDNA-based mammalian expression vector harboring human IDO1 cDNA (NM 002164.2) by electroporation. They were cultured in medium (DMEM with 10% FBS) containing 1 mg/ml G418 for two weeks. Clones of HEK293 cells that stably expressed human IDO1 protein were selected and expanded for IDO inhibition assay.
The human IDO1/HEK293 cells were seeded at 10,000 cells per 50 μL per well with RPMI/phenol red free media contains 10% FBS in a 384-well black wall clear bottom tissue culture plate (Matrix Technologies LLC) 100 nL of certain concentration of compound was then added to each well using ECHO liquid handling systems. The cells were incubated for 20 hours in 37° C. incubator with 5% CO2.
The compound treatments were stopped by adding trichloroacetic acid (Sigma-Aldrich) to a final concentration at 0.2%. The cell plate was further incubated at 50° C. for 30 minute. The equal volume supernatant (20 μL) and 0.2% (w/v) Ehrlich reagent (4-dimethylaminobenzaldehyde, Sigma-Aldrich) in glacial acetic acid were mixed in a new clear bottom 384-well plate. This plate was then incubated at RT for 30 minute. The absorbance at 490 nm was measured on Envision plate reader.
Compound IC50 values were calculated using the counts of 500 nM of a reference standard treatment as one hundred percent inhibition, and counts of no compound but DMSO treatment as zero percent inhibition.

T1 sequence (P14902 whole entry): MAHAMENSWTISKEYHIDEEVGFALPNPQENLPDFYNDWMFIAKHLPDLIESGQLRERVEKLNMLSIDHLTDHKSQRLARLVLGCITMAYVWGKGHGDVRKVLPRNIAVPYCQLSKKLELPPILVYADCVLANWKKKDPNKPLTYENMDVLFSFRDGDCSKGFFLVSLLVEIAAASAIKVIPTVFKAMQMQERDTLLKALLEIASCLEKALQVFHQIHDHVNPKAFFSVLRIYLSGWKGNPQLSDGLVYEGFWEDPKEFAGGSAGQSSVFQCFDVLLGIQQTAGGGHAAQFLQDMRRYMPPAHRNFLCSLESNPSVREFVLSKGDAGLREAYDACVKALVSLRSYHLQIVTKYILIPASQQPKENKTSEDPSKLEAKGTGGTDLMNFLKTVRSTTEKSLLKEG

IC50 [nM] | Compound
327 | COC(=O)c1c(C)cccc1-c1cc(NC(=O)Nc2ccc(C)cc2)c2c(c1)C(c1ccccc1)CCCO2 (centres unmarked) [Example 66, methyl 2-methyl-6-(5-phenyl-9-(3-(p-tolyl)ureido)-2,3,4,5-tetrahydrobenzo[b]oxepin-7-yl)benzoate]
310 | CC1(C)Oc2c(NC(=O)Nc3ccccc3F)cc(-c3ccccc3C(=O)O)cc2C1c1ccccc1 (racemic) [Example 126, (±)-2-(7-(3-(2-Fluorophenyl)ureido)-2,2-dimethyl-3-phenyl-2,3-dihydrobenzofuran-5-yl)benzoic acid]
1300 | Cc1ccc(NC(=O)Nc2cc(-c3cc(F)ccc3C(=O)O)cc3c2O[C@@H](C)[C@H]3c2ccccc2)cc1 (relative stereo) [Example 114, rel-4-fluoro-2-((2R,3R)-2-methyl-3-phenyl-7-(3-(p-tolyl)ureido)-2,3-dihydrobenzofuran-5-yl)benzoic acid]
0.78 | Cc1ccc(NC(=O)Nc2cc(-c3ccccc3-c3nnn[nH]3)cc3c2OCCC(C)C3c2ccccc2)cc1 (single isomer, unassigned) [Example 46, 1-(7-(2-(1H-tetrazol-5-yl)phenyl)-4-methyl-5-phenyl-2,3,4,5-tetrahydrobenzo[b]oxepin-9-yl)-3-(p-tolyl)urea]
14.4 | Cc1ccc(NC(=O)Nc2cc(-c3cc(C)ccc3C(=O)O)cc3c2OCCCC3c2ccccc2)cc1 (single isomer, unassigned) [Example 68, 4-methyl-2-(5-phenyl-9-(3-(p-tolyl)ureido)-2,3,4,5-tetrahydrobenzo[b]oxepin-7-yl)benzoic acid]
28.2 | O=C(Nc1ccccc1F)Nc1cc(-c2ccccc2-c2nnn[nH]2)cc2c1OCCCC2c1ccc(F)cc1 (centres unmarked) [Example 70, 1-(7-(2-(1H-tetrazol-5-yl)phenyl)-5-(4-fluorophenyl)-2,3,4,5-tetrahydrobenzo[b]oxepin-9-yl)-3-(2-fluorophenyl)urea]
28 | Cc1ccc(NC(=O)Nc2cc(-c3ccccc3-c3nnn[nH]3)cc3c2O[C@H](C)[C@H]3c2ccccc2)cc1 (relative stereo) [Example 115, rel-1-((2R,3 S)-5-(2-(1H-tetrazol-5-yl)phenyl)-2-methyl-3-phenyl-2,3-dihydrobenzofuran-7-yl)-3-(p-tolyl)urea]
26 | C=C(C)C1Oc2c(NC(=O)Nc3ccc(C)cc3)cc(-c3ccccc3C(=O)O)cc2C1c1ccccc1 (racemic) [Example 96]
5.6 | C=CC1Oc2c(NC(=O)Nc3ccc(CC)cc3)cc(-c3ccccc3-c3nnn[nH]3)cc2C1CCC(F)(F)F (racemic) [Example 99]
30.1 | Cc1ccc(NC(=O)Nc2cc(-c3ccccc3-c3nnn[nH]3)cc3c2OCCC(C)C3c2ccccc2)cc1 (single isomer, unassigned) [Example 43, 1-(7-(2-(1H-tetrazol-5-yl)phenyl)-4-methyl-5-phenyl-2,3,4,5-tetrahydrobenzo[b]oxepin-9-yl)-3-(p-tolyl)urea]
33.5 | Cc1ccc(-c2nnn[nH]2)c(-c2cc(Nc3ccc(OC(F)F)cc3)c3c(c2)C(c2ccccc2)CCCO3)c1 (single isomer, unassigned) [Example 79, N-(4-(difluoromethoxy)phenyl)-7-(5-methyl-2-(1H-tetrazol-5-yl)phenyl)-5-phenyl-2,3,4,5-tetrahydrobenzo[b]oxepin-9-amine]
18.5 | Cc1ccc(-c2nnn[nH]2)c(-c2cc(Nc3ccc(Cl)cc3F)c3c(c2)C(c2ccccc2)CCCO3)c1 (single isomer, unassigned) [Example 75, N-(4-chloro-2-fluorophenyl)-7-(5-methyl-2-(1H-tetrazol-5-yl)phenyl)-5-phenyl-2,3,4,5-tetrahydrobenzo[b]oxepin-9-amine]

Second part, the molecule before the results:

Compound | IC50 [nM]
c1ccc(C2CCCOc3c(Nc4ccn5nccc5n4)cc(-c4ccccc4-c4nnn[nH]4)cc32)cc1 (single isomer, unassigned) [84 (En. 2), N-(7-(2-(1H-tetrazol-5-yl)phenyl)-5-phenyl-2,3,4,5-tetrahydrobenzo[b]oxepin-9-yl) pyrazolo[1,5-a]pyrimidin-5-amine] | 25.8
Cc1ccc(NC(=O)Nc2cc(-c3ccccc3C(N)=O)cc3c2OCCCC3c2ccccc2)cc1 (centres unmarked) [Example 7, 2-(5-phenyl-9-(3-(p-tolyl)ureido)-2,3,4,5-tetrahydrobenzo[b]oxepin-7-yl)benzamide] | 40.8
Fc1cnc(Nc2cc(-c3ccccc3-c3nnn[nH]3)cc3c2OCCCC3c2ccccc2)nc1 (single isomer, unassigned) [63 (En-2), N-(7-(2-(1H-tetrazol-5-yl)phenyl)-5-phenyl-2,3,4,5-tetrahydrobenzo[b]oxepin-9-yl)-5-fluoropyrimidin-2-amine] | 11.6
Cc1cc(NC(=O)Nc2cc(-c3ccccc3-c3nnn[nH]3)cc3c2OCCCC3c2ccccc2)no1 (centres unmarked) [Example 15, 1-(7-(2-(1H-tetrazol-5-yl)phenyl)-5-phenyl-2,3,4,5-tetrahydrobenzo[b]oxepin-9-yl)-3-(5-methylisoxazol-3-yl)urea] | 232
Cc1ccc(NC(=O)Nc2cc(-c3ccccc3-c3nc(=O)o[nH]3)cc3c2OCCCC3C2CC2)cc1 (single isomer, unassigned) [Example 33-2, 1-(5-cyclopropyl-7-(2-(5-oxo-2,5-dihydro-1,2,4-oxadiazol-3-yl)phenyl)-2,3,4,5-tetrahydrobenzo[b]oxepin-9-yl)-3-(p-tolyl)urea] | 8
Cc1ccc(CC(=O)Nc2cc(-c3ccccc3-c3nnn[nH]3)cc3c2OCCCC3C(C)C)cc1 (racemic) [25 (Rac), N-(7-(2-(1H-tetrazol-5-yl)phenyl)-5-isopropyl-2,3,4,5-tetrahydrobenzo[b]oxepin-9-yl)-2-(p-tolyl)acetamide] | 29.9
Cc1ccc(Nc2cc(-c3ccccc3-c3nnn[nH]3)cc3c2OCCCC3c2ccccc2)nc1 (single isomer, unassigned) [62 (En. 2), N-(7-(2-(1H-tetrazol-5-yl)phenyl)-5-phenyl-2,3,4,5-tetrahydrobenzo[b]oxepin-9-yl)-5-methylpyridin-2-amine] | 44.9
Cc1ccc(-c2nnn[nH]2)c(-c2cc(NC(=O)Nc3ccccc3F)c3c(c2)C(C2CC2)CCCO3)c1 (single isomer, unassigned) [Example 34-1] | 66
Cc1ccc(NC(=O)Nc2cc(-c3ccccc3-c3nnn[nH]3)cc3c2OCC(O)C(O)C3c2ccccc2)cc1 (racemic) [9 (Rac.), 1-(7-(2-(1H-tetrazol-5-yl)phenyl)-3,4-dihydroxy-5-phenyl-2,3,4,5-tetrahydrobenzo[b]oxepin-9-yl)-3-(p-tolyl)urea] | 1040
Cc1ccc(CC(=O)Nc2cc(-c3ccccc3-c3nnn[nH]3)cc3c2OCCCC3c2ccccc2)cc1 (single isomer, unassigned) [Example 2-3, N-(7-(2-(1H-tetrazol-5-yl)phenyl)-5-phenyl-2,3,4,5-tetrahydrobenzo[b]oxepin-9-yl)-2-(p-tolyl)acetamide] | 21.4
O=C(Nc1ccccc1F)Nc1cc(-c2ccccc2-c2nnn[nH]2)cc2c1OCCCC2c1ccccc1 (single isomer, unassigned) [10 (En.2), 1-(7-(2-(1H-tetrazol-5-yl)phenyl)-5-phenyl-2,3,4,5-tetrahydrobenzo[b]oxepin-9-yl)-3-(2-fluorophenyl)urea] | 41.4
Cc1ccc(CC(=O)Nc2cc(-c3ccccc3-c3nnn[nH]3)cc3c2OCCCC3C2CC2)c(F)c1 (single isomer, unassigned) [39 (En. 2)] | 32.6
Cc1ccc(NC(=O)Nc2cc(-c3ccccc3S(=O)(=O)NC(=O)c3ccccc3)cc3c2OCCCC3c2ccccc2)cc1 (single isomer, unassigned) [60 (En. 1), N-((2-(5-phenyl-9-(3-(p-tolyl)ureido)-2,3,4,5-tetrahydrobenzo[b]oxepin-7-yl)phenyl)sulfonyl)benzamide] | > 6000
Cc1ccc(-c2noc(Nc3cc(-c4ccccc4-c4nnn[nH]4)cc4c3OCCCC4c3ccccc3)n2)cc1 (single isomer, unassigned) [26 (En. 1), N-(7-(2-(1H-tetrazol-5-yl)phenyl)-5-phenyl-2,3,4,5-tetrahydrobenzo[b]oxepin-9-yl)-3-(p-tolyl)-1,2,4-oxadiazol-5-amine] | 2560
c1ccc(C2CCCOc3c(Nc4nc5ccccc5o4)cc(-c4ccccc4-c4nnn[nH]4)cc32)cc1 (single isomer, unassigned) [53 (En. 1), N-(7-(2-(1H-tetrazol-5-yl)phenyl)-5-phenyl-2,3,4,5-tetrahydrobenzo[b]oxepin-9-yl) benzo[d] oxazol-2-amine] | 216
Cc1ccc(-c2noc(Nc3cc(-c4ccccc4-c4nnn[nH]4)cc4c3OCCCC4c3ccccc3)n2)cc1 (single isomer, unassigned) [26 (En. 2), N-(7-(2-(1H-tetrazol-5-yl)phenyl)-5-phenyl-2,3,4,5-tetrahydrobenzo[b]oxepin-9-yl)-3-(p-tolyl)-1,2,4-oxadiazol-5-amine] | 424
CCC(C)C1CCCOc2c(NC(=O)Cc3ccc(C)cc3)cc(-c3ccccc3-c3nnn[nH]3)cc21 (single isomer, unassigned) [30 (Dia. mix 1), N-(7-(2-(1H-tetrazol-5-yl)phenyl)-5-(sec-butyl)-2,3,4,5-tetrahydrobenzo[b]oxepin-9-yl)-2-(p-tolyl)acetamide] | 77.6
